Measured values reported in US20230158063A1, “AIRWAY […] THERAPY TO TREAT VIRAL R[…]” (THE TRUSTEES OF INDIANA UNIVERSITY, priority 2020, published 2023).

Tested on: primary normal human airway epithelial (HAE) cells
Assay: Intracellular pH of HAE cells by pH-sensitive dye fluorescence microscopy
Type: cell-based
Details: HAE cells pre-loaded with 1.25 μM BCECF-AM; normalized to pre-treatment; n=3; ZnCl2 at 100 μM

[Cl-].[Cl-].[Zn+2] [ZnCl2, zinc chloride]
BCECF-AM fluorescence intensity (increases as pH increases): essentially eliminating fluorescence
